Assay results from patent US12257265B2, “Cyclic dinucleotide prodrug molecule, preparation method therefor and application thereof” (SHENZHEN YING BIOPHARMACEUTICAL CO., LTD., priority 2019, dated 2025).
Read-outs that look alike come from different tables or passages of the source.

How the values were obtained:
CT-26-Luc cells = test: Anticancer activity assay in CT-26 mouse tumor model; type: in vivo, mice; conditions: 1 mg/kg intratumoral injection, once every two days, three times, FIG. 4 and FIG. 5
Protocol: Anticancer Activity Assay of the Compound 8
Mice: BABL/C female mice, weight 18 g to 22 g. The source is the animal experiment center in Guangdong province, and the mice are fed with pellet feed and freely eat and drink water.
Tumor Cell Lines: CT-26-Luc Cells […]
The administration method includes the following steps: the administration was started at the 10th day after tumor inoculation growth, and 50 microliters/mouse was administered once every two days for a total of three times by intratumoral injection. The growth of tumors in mice was detected by chemiluminescence using the IVIS Spectrum Imaging System. […] After imaging, fluorescence values were converted to photon numbers and the total number of fluorescence photons for each experimental group was counted. […] In which the numbers in FIG. 4a, FIG. 4b, FIG. 4c, FIG. 4d, FIG. 4e and FIG. 4f represent the total number of fluorescence photons in the circular region (ROI, region of interest), and FIG. 4g and FIG. 4h are statistical graphs of the total number of fluorescence photons for each experimental group, respectively. […]

[1] = tested on: type I interferon expression in THP-1 cells; conditions: reference compound 2′3′-RR-(AXA) in patent CN108430503A; read-out: EC50 value of the control drug; cited from earlier work
[2] = tested on: type I interferon expression in THP-1 cells; test: Type I interferon activity assay in monocytic cell line THP-1 (THP-1-Lucia) cells; type: cell-based; conditions: for EC50: Homo sapiens, THP-1, dose-response curves, serial dilutions, FIG. 3, read-out: EC50 causing type I interferon expression in THP-1 cell line
Protocol: Activity Assay of Two Cyclic Dinucleotide Prodrug Molecules in Monocytic Cell Line THP-1 Cells
The THP-1-Lucia cells confluency reached about 80%, and the compound 8, the compound 16 and the drug ADU-S100 are directly dissolved into a culture medium according to a certain concentration and added into a 24-well plate, wherein four wells are parallel. The cells were maintained under the culture condition of 37° C. and 5% CO2 for 24 h. After the end of the culture, luciferase activity was measured. Wherein, the test results of the type I interferon of the compound 8, the compound 16 and the drug ADU-S100 in the monocyte cell line THP-1 under the action concentration of 10 μM are shown in FIG. 2; EC50 values for the compound 8 and the compound 16 to cause type I interferon expression in THP-1 cell lines were then determined by dose-response curves for serial dilutions at various concentrations, as shown in FIG. 3.

[3] = Determination of the oil-water partition coefficient log P (n-octanol/water, HPLC); type: physicochemical; conditions: pH 7; n-octanol / purified water (10 mM K2HPO4 pH7.0), HPLC peak area ratio, three repeats
Protocol: Determination of the Oil-Water Partition Coefficient Log P of the Two Cyclic Dinucleotide Prodrug Molecules.
1) Preparing the compound solution: a certain amount of the compound 8, the compound 16 and the compound cddA35 were weighed and dissolved in DMSO solutions respectively to prepare mother solutions with a concentration of 1 mg/mL. 2) 20 μL of the prepared mother liquor was added to an EP tube containing a mixture of 1 mL of n-octanol and 1 mL of purified water (10 mM K2HPO4 pH7.0), vortexed for 2 h with shaking, and allowed to stand overnight at 4° C. for phase separation, and 400 μL of solution from each phase was separated. Centrifuging at 3000 rpm for 5 min, filtering with corresponding […] filter membrane, measuring the two-phase absorption peak area under the same HPLC parameter condition, repeating the experiment for three times, and calculating log value of the peak area ratio of n-octyl alcohol phase and water phase to obtain the log P value of the target compound, as shown in Table 2.
HPLC conditions: the instrument used by an Agilent 1260 HPLC, column: Agilent ZORABX SB-C185 μm [4.6×150 mm], column temperature 25° C., sample injection 10 μL, detection wavelength was […], chromatographic gradient method as shown in Table 1 below.

STING = test: Dual-fluorescence reporter gene activity assay in HEK293T cells (hSTING-wt, IFNβ promoter luciferase); type: cell-based, human; conditions: 5 μM, without any transfection reagent, 24 h, FIG. 1
Protocol: Activity assay of two cyclic dinucleotide prodrug molecules in HEK293T cells
The principle is as follows: dual-fluorescence reporter gene experiments: After entering a cell, the cyclic dinucleotide prodrug molecule passes through thioesterase in the cytoplasm of the cell or a reducing environment, so that thioester bond breakage or disulfide bond breakage is carried out, then an intermediate is obtained, a sulfur atom at a p position can nucleophilically attack a carbon atom at the a position, cyclic thioethane is removed, cyclic dinucleotides with a phosphodiester structure of a parent drug with negative charges are released, the intracellular STING protein is combined and activated, interferon regulatory factor 3 (IRF3) is phosphorylated, phosphorylated IRF3 enters into the nucleus and combined with the promoter region of a interferon-β gene to cause the expression of interferon, and based on these, the interferon gene promoter is introduced into a promoter of firefly luciferase, so that the cell activity of the prodrug molecule can be measured by using a dual-fluorescence reporter gene method.
(1) preparing the compound solution: the compound 8 and the compound 16 were dissolved in DMSO, respectively, to obtain a final concentration of 1 mM. cddA35 was dissolved in water and similarly prepared at a concentration of 1 mM. […]

EC50 [2] | logP [3] | Structure (SMILES) | growth of the tumor in the mice (CT-26-Luc cells) | EC50 [1] | dual-fluorescence result: crossing cell membranes and activating STING pathway / expression of interferon (STING) | expression of type I interferon in THP-1 cell line ([2]; action concentration of 10 μM, without any transfection reagent, 24 h, FIG. 2, activity much higher than ADU-S100)
 |  | Nc1ncnc2c1ncn2[C@@H]1O[C@@H]2COP(=O)([S-])O[C@@H]3[C@H](O)[C@@H](COP([O-])(=S)O[C@H]2[C@H]1O)O[C@H]3n1cnc2c(N)ncnc21.[Na+].[Na+] (stereo partly shown) [ADU-S100] | only controlled | 41500 nM |  | 
4.4 nM | 1.93 | CC(C)(C)C(=O)SCCOP1(=O)OC[C@H]2O[C@@H](n3cnc4c(N)ncnc43)C[C@H]2OP(=O)(OCCSC(=O)C(C)(C)C)OC[C@H]2O[C@@H](n3cnc4c(N)ncnc43)CC2O1 (stereo partly shown) [Compound 8] |  |  |  | 
355 nM | 0.85 | Nc1ncnc2c1ncn2[C@H]1CC2OP(=O)(OCCSSc3ccccn3)OC[C@H]3O[C@@H](n4cnc5c(N)ncnc54)CC3OP(=O)(OCCSSc3ccccn3)OC[C@H]2O1 (stereo partly shown) [Compound 16] |  |  | can autonomously cross cell membranes without any transfection reagent | strong expression of type I interferon
 | -3.43 | Nc1ncnc2c1ncn2[C@H]1CC2OP(=O)(O)OC[C@H]3O[C@@H](n4cnc5c(N)ncnc54)CC3OP(=O)(O)OC[C@H]2O1 (stereo partly shown) [cddA35, reference compound] |  |  | hardly crosses cell membranes | 
